# Reference: patent US10688084B2 (priority 2016, dated 2020)
# Like-named read-outs stand apart in the source and are kept apart here.
# Tests used:
# [1] = cited from earlier work
# acute inflammation = conditions: literature value; cited from earlier work
# [2] = literature value; cited from earlier work
# Wistar rats [3] = conditions: prototype of RU 2513089; cited from earlier work
# [4] = tested on: subacute (formalin) edema; conditions: prototype of RU 2513089; cited from earlier work
# cyclooxygenase (COX) = assay: COX activity assay (fluorometric kit, peroxidase activity) with skin fibroblast (HSF) cell lysate; type: biochemical; conditions: fibroblast cell lysate, 1.25 to 20 μM in the well
# Wistar rats [5] = type: in vivo; conditions: for Analgesic effect, total/analgesic effect / Paw volume 0 hours / Paw volume 3 hours / Analgesic effect, %: 15 mg/kg
# Experimental: In the study of analgesic properties of the formula I compound, were taken female and male Wistar rats aged 6-7 weeks with a body mass of 180-220 g. The number of animals in each group was 10.
# […] inflammation was modeled in rats by subplantar administration of 0.1 ml of a 1% solution of carrageenin (a sulfated polysaccharide from Irish sea moss) into the right hind paw. The substance was administered intragastrically using a gastric probe.
# Inflammatory hyperalgesia (increased pain sensitivity of inflamed tissues in rats) was caused by carrageenin and was assessed by decrease of the pain sensitivity threshold—PST (by PST difference) to mechanical irritation (squeezing) of the paw tissue of the animal before the introduction of carrageenin and 3 hours after it. The measurement was performed on the inflamed paw. Used analgesimeter Ugo Basile S.R.L. (Italy) provides a gradual increased afterload on the rat's inflamed paw until a pain reaction appears (assessed by squeaking of animal or withdrawing the paw). The analyte was administered 2 h after carrageenin administration. […] An increase in the pain response threshold under the influence of the substances under study was expressed in an increase in the force of compression of the limb and characterized the intensity of the analgesic effect of the preparation. After the experiment, animals were euthanized by carbon dioxide inhalation method.
# The introduction to rats was carried out in the amount of no more than 1 ml/100 g. The concentration of the resulting solution was 5 mg/ml.
# (§1) To prepare a dose of 20 mg/kg, 40 ml of solution with a concentration of 5 mg/ml (50 mg/kg) were taken, transferred to a 100 ml measuring flask with accuracy class A, adjusted to 100 ml with 0.5% water solution of Tween-80 and the suspension was dispersed to a homogeneous consistency using a dispersant.
# To prepare a dose of 10 mg/kg, 20 ml of solution with a concentration of 5 mg/ml (50 mg/kg) were taken, transferred to a 100 ml measuring flask with accuracy class A, adjusted to 100 ml with 0.5% aqueous solution of Tween-80 and the suspension was stirred to a homogeneous consistency with a magnetic stirrer MR Hei-Standard (Heidolph, Germany).
# as §1, with “5” for “20”, “[…]” for “40”, “stirred” for “dispersed”, “with” for “using”, “magnetic stirrer.” for “dispersant.”
# Wistar rats [6] = type: in vivo; conditions: for Δ t after 2 hours, (M ± SD) / Δ t after 3 hours, (M ± SD) / Δ t after 4 hours, (M ± SD) / Δ t after 5 hours, (M ± SD) / Δ t after 6 hours, (M ± SD) / Δ t after 7 hours, (M ± SD): 15 mg/kg
# Experimental: In the study of antipyretic properties of the formula I compound, were taken female and male Wistar rats aged 6-7 weeks, with a body mass of 180-220 g. The number of animals in each group was 10.
# The febrile reaction was caused by subcutaneous administration of a 20% suspension of baking yeast. The rectal temperature was measured with an electrothermometer prior to the introduction of yeast and 18 hours after it (the difference of these measurements is the estimated hyperthermic reaction). The preparation was administered to animals at the peak of hyperthermia once (after 18 hours). The antipyretic effect was evaluated by hyperthermia decrease 2 hours after the injection of the test substance, and then the effect dynamics was recorded at hourly intervals for 7 hours.
# The introduction to rats was carried out in the amount of no more than 1 ml/100 g. The concentration of the resulting solution was 7.5 mg/ml.
# The difference in temperature after preparation administration and after 18 hours of induction with yeast was taken as the parameter of hyperthermia decrease.
# Animals were observed individually after administration throughout the study. […] Wilcoxon nonparametric criterion was used for statistical comparison of experimental groups. Differences were determined at the 0.05 level of significance. The statistical analysis was carried out using the R-studio program.
molecule,measurement,setting,value
"2-[(2,6-dichlorophenyl) amino] benzene acetic acid [Diclofenac sodium]",UD50,[1]; literature value,48 mg/kg
"CC(C)Cc1ccc(C(C)C(=O)O)cc1 (racemic) [Ibuprofen, (RS)-2-(4-isobutylphenyl) propionic acid]",ED50 acute inflammation,acute inflammation,48 mg/kg
same,UD50,[1]; literature value,310 mg/kg
same,LD50,[2],750 mg/kg
"COc1ccc2cc([C@H](C)C(=O)OCc3cnc(C)c(OC(=O)[C@@H](C)c4ccc5cc(OC)ccc5c4)c3COC(=O)[C@@H](C)c3ccc4cc(OC)ccc4c3)ccc2c1 [(2S,2'S)-(5-((S)-2-(6-methoxinaft-2-yl)propanoiloxy)-6-methylpyridine-3,4-diyl) bis (methylene) bis (2-(6-methoxynaphth-2-yl) propanoate)]",Efficacy on the model of acute (carrageenin) edema in vivo,Wistar rats [3],not effective enough
same,Efficacy on the model of subacute (formalin) edema in vivo,[4],pronounced anti-inflammatory effect
CC(=O)Oc1ccccc1C(=O)O [Acetylsalicylic acid],ED50 acute inflammation,acute inflammation,98 mg/kg
same,UD50,[1]; literature value,240 mg/kg
same,UD50/ED50 (safety index),[1]; literature value,2.45
same,LD50,[2],1600 mg/kg
same,LD50/ED50 (therapeutic index),[2],16
"COc1ccc2c(c1)c(CC(=O)O)c(C)n2C(=O)c1ccc(Cl)cc1 [Indomethacin, 1-(4-chlorobenzoyl)-5-methoxy-2-methyl-1H-indol-3-acetic acid]",ED50 acute inflammation,acute inflammation,10 mg/kg
same,UD50,[1]; literature value,10 mg/kg
same,UD50/ED50 (safety index),[1]; literature value,1
same,LD50,[2],47 mg/kg
same,LD50/ED50 (therapeutic index),[2],4.7
"COc1ccc2cc([C@H](C)C(=O)O)ccc2c1 [Naproxen, (S)-6-methoxy-α-methyl-2-naphthalenacetic acid, reference compound]",IC50,cyclooxygenase (COX),9.56 µM
same,"Analgesic effect, total/analgesic effect",Wistar rats [5]; females,10/7
same,Paw volume 0 hours,Wistar rats [5]; females,5.0 ± 6.2
same,Paw volume 3 hours,Wistar rats [5]; females,5.0 ± 3.2
same,"Analgesic effect, %","Wistar rats [5]; females, control = 100.0",195.3 ± 125.3%
same,Dose at which a pronounced anesthetic effect is exhibited,Wistar rats [5]; intragastric,15 mg/kg
same,"Analgesic effect, total/analgesic effect",Wistar rats [5]; males,10/7
same,"Analgesic effect, %","Wistar rats [5]; rat, in vivo",234.5 ± 160.2%
same,Paw volume 0 hours,"Wistar rats [5]; rat, in vivo",5.0 ± 2.9
same,Paw volume 3 hours,"Wistar rats [5]; rat, in vivo",6.7 ± 4.6
same,Level of temperature decrease,Wistar rats [6]; 15 mg/kg (or 65 μmol/kg),0.74-1.6 °C
same,"Δ t after 2 hours, (M ± SD)",Wistar rats [6]; females,1.64
same,"Δ t after 3 hours, (M ± SD)",Wistar rats [6]; females,1.35
same,"Δ t after 4 hours, (M ± SD)",Wistar rats [6]; females,1.58
same,"Δ t after 5 hours, (M ± SD)",Wistar rats [6]; females,1.21
same,"Δ t after 6 hours, (M ± SD)",Wistar rats [6]; females,1.09
same,"Δ t after 7 hours, (M ± SD)",Wistar rats [6]; females,0.74
same,"Δ t after 2 hours, (M ± SD)",Wistar rats [6]; males,1.39
same,"Δ t after 3 hours, (M ± SD)",Wistar rats [6]; males,1.49
same,"Δ t after 4 hours, (M ± SD)",Wistar rats [6]; males,1.6
same,"Δ t after 5 hours, (M ± SD)",Wistar rats [6]; males,1.51
same,"Δ t after 6 hours, (M ± SD)",Wistar rats [6]; males,1.53
same,"Δ t after 7 hours, (M ± SD)",Wistar rats [6]; males,1.44
same,ED50 acute inflammation,acute inflammation,15 mg/kg
same,UD50,[1]; literature value,49 mg/kg
CCCCC1C(=O)N(c2ccccc2)N(c2ccccc2)C1=O [Phenylbutazone],UD50,[1]; literature value,120 mg/kg
CN1C(C(=O)Nc2ccccn2)=C(O)c2ccccc2S1(=O)=O [Pyroxicam],ED50 acute inflammation,acute inflammation,20 mg/kg
same,UD50,[1]; in vivo,36 mg/kg
same,UD50/ED50 (safety index),[1]; literature value,1.8
same,LD50,[2],290 mg/kg
same,LD50/ED50 (therapeutic index),[2],15
